Measured values from patent US20220331286A1, “CANNABIS LIMITS CANCER STEM CELL GROWTH IN POORLY DIFF[…]” (The Regents of the University of California, priority 2021, published 2022).
“Also recorded” adds a separate entry of the source.

Legend:
breast cancer cell lines = details: not normal breast epithelium; cited from earlier work
[1] = system: Oral squamous carcinoma cells (OSCCs); test: Microscopy of cell morphology and viability; format: cell-based, human
[2] = system: oral squamous carcinoma stem cells (OSCSCs); test: Microscopy of cell morphology and viability; format: cell-based, human; details: WIN 55,212-2 even at the lowest concentrations; CDDP 50 μg/mL; 24 h
[3] = system: PL-12 well-differentiated pancreatic tumor cells; test: Microscopy of cell morphology and viability; format: cell-based, human; details: different concentrations of WIN 55,212-2; CDDP 50 μg/mL; 24 hours
[4] = system: Oral squamous carcinoma cells (OSCCs); test: Cell death by propidium iodide staining and flow cytometry; format: cell-based, human; details: 24 hours
Method: (§1) After an overnight incubation the cells were washed twice and stained with propidium iodide (PI) at a concentration of 3 μg/ml. Flow cytometric analysis was performed using Attune flow cytometer results were analyzed using FlowJo vX software (Ashland, Oreg.).

[5] = system: Oral squamous carcinoma cells (OSCCs); test: Viable cell count (Trypan Blue) after treatment; format: cell-based, human; details: for killing / decrease in cell numbers of OSCCs, in words: WIN 55,212-2 10, 25, 50, 100 μM, CDDP 50 μg/ml
Method: (§2) Oral squamous carcinoma cells (OSCCs) and oral squamous carcinoma stem cells (OSCSCs) were isolated from cancer patients with tongue tumors at UCLA. The cells were cultured in RPMI 1640 complete medium with 10% fetal bovine serum (FBS) 1.4% Antibiotic-Antimycotic, 1% sodium pyruvate, 1.4% non-essential amino acids, 1% L-glutamine, 0.2% gentamicin (Gemini Bio-Products, CA, USA), and 0.15% sodium bicarbonate (Fisher Scientific, PA, USA).
(§3) As shown in FIG. 1A-1E, OSCSCs are affected more by WIN 55,212-2 than OSCCs. Both OSCCs (oral squamous carcinoma cells) and OSCSCs (oral squamous carcinoma stem cells) were treated with various concentrations of WIN 55,212-2 (10, 25, 50, and 100 μM) and CDDP (50 μg/ml), and the cell numbers were determined after 24 hours of treatment.
(§4) RPMI 1640 (Gibco, Thermo Fisher Scientific, USA) complete medium with 10% fetal bovine serum (FBS) (Gemini Bio-Products, San Diego, Calif., USA), 1.4% of non-essential amino acid (Gibco, Thermo Fisher Scientific, USA), 1.4% sodium pyruvate (Gibco, Thermo Fisher Scientific, USA), 0,15% of sodium bicarbonate (Fisher Scientific, Waltham, Mass., USA) and 1% antibiotics/antimycotics (Gemini Bio-Products, San Diego, Calif., USA) was used for oral tumor culture. DMEM (Gibco, Thermo Fisher Scientific, USA) supplemented with 10% FBS and 1% antibiotics/antimycotics was used for pancreatic tumor cell culture. Oral squamous carcinoma cells (OSCCs) and oral squamous carcinoma stem cells (OSCSCs) were isolated from cancer patients with tongue tumor at UCLA. Human pancreatic cancer cell lines MIA PaCa-2 (MP2) and PL-12 were generously provided by Dr. Guido Eibl (UCLA David Geffen School of Medicine) and by Dr. Nicholas Cacalano (UCLA Jonsson Comprehensive Cancer Center), respectively. […] CDDP was purchased from Ronald Reagan UCLA Medical Center Pharmacy. […] TNF-α and IFN-γ were purchased from Peprotech (Rockyhill, N.J.).
(§5) The number of viable cells was counted under light microscope using Trypan Blue staining (Sigma, Mo., USA).

[6] = system: oral squamous carcinoma stem cells (OSCSCs); test: Viable cell count (Trypan Blue) after treatment; format: cell-based, human; details: WIN 55,212-2 10, 25, 50, 100 μM, CDDP 50 μg/ml, 24 hours
Method: as §2, §3, §4, §5

[7] = system: MIA PaCa-2 (MP2) poorly differentiated/stem like pancreatic tumor cells; test: Microscopy of cell morphology and viability; format: cell-based, human; details: different concentrations of WIN 55,212-2; CDDP 50 μg/mL; 24 hours
[8] = system: PL-12 well-differentiated pancreatic tumor cells; test: Cell death by propidium iodide staining and flow cytometry; format: cell-based, human
From the text: (§6) Propidium iodide (PI) staining was used to determine the cell death by flow cytometry.

[9] = system: PL-12 well-differentiated pancreatic tumor cells; test: Viable cell count (Trypan Blue) after treatment; format: cell-based, human; details: for percent decrease in cell numbers of PL12, in words: various concentrations of WIN 55,212-2, CDDP 50 μg/ml
From the text: (§7) Six different pancreatic tumor cell lines each characterized at poorly, intermediate and well differentiated stages pathologically by other laboratories previously were used to determine phenotype, susceptibility to NK cell-mediated cytotoxicity and secretion of IFN-γ directly correlating with the differentiation stages of the tumors. […] Furthermore, the stage of differentiation of the tumors was correlated with sensitivity to NK cell mediated cytotoxicity in pancreatic tumor cells. […] Therefore, a direct correlation between augmented sensitivity to NK-mediated lysis and poor differentiation of pancreatic tumors was evident from these experiments. For the following experiments MP2 and PL12 were used as representative tumor types for poorly differentiated and well differentiated tumors respectively. Human pancreatic cancer cell line MIA PaCa-2 (MP2), was provided by Dr. Guido Eibl (UCLA David Geffen School of Medicine) and PL12 was provided by Dr. Nicholas Cacalano (UCLA Jonsson Comprehensive Cancer Center). MP2 tumors were cultured with DMEM in supplement with 10% FBS and 1% Penicillin-Streptomycin (Gemini Bio-Products, CA). PL12 pancreatic tumors were cultured in RMPI 1640 medium supplemented with 10% FBS and 1% penicillin-streptomycin.
as §4, §5

tumor = test: Cytostatic effect: tumor-cell coverage of the well-plate (FIG. 2); format: cell-based; details: at higher concentrations (FIG. 2)
From the text: In FIG. 2, the cystostatic effect of WIN 55,212-2 are shown.

[10] = system: oral squamous carcinoma stem cells (OSCSCs); test: Cell death by propidium iodide staining and flow cytometry; format: cell-based, human
Method: as §1

[11] = system: oral squamous carcinoma stem cells (OSCSCs)
[12] = system: PL-12 well-differentiated pancreatic tumor cells; details: WIN 55,212-2, 48 h; mesylate
[13] = system: Oral squamous carcinoma cells (OSCCs)
[14] = system: MIA PaCa-2 (MP2) poorly differentiated/stem like pancreatic tumor cells; test: Cell death by propidium iodide staining and flow cytometry; format: cell-based, human
From the text: as §6

[15] = system: MIA PaCa-2 (MP2) poorly differentiated/stem like pancreatic tumor cells; test: Viable cell count (Trypan Blue) after treatment; format: cell-based, human
From the text: as §7, §4, §5

[16] = system: MIA PaCa-2 (MP2) poorly differentiated/stem like pancreatic tumor cells
[17] = system: mouse models of breast cancer, non-small cell lung cancer, and non-melanoma skin cancer; details: cited from earlier work
[18] = WIN 55,212-2 50 μM or higher, CDDP 50 μg/mL, 24 h
[19] = WIN 55,212-2 (5-50 μM), 24 hours, mesylate
[20] = various concentrations of WIN 55,212-2, 24 hours and 48 hours (FIG. 4A-4B)
[21] = WIN 55,212-2 (5-50 μM), 24 hours, vs untreated control, mesylate
[22] = WIN 55,212-2 25-100 μM, 24-48 hours
[23] = different concentrations of WIN 55,212-2, dose-dependent, 24-48 hours

## C=C(C)[C@@H]1CCC(C)=C[C@H]1c1c(O)cc(CCCCC)cc1O [CBD, Cannabidiol]
Breast cancer cell lines
  effect on radiotherapy / anti-proliferative effects of radiation: failed to enhance anti-proliferative effects of radiation

## N.N.[Cl][Pt][Cl] [CDDP, cis-diaminedichloridoplatinum (II)]
[1]; [18]
  morphology/viability of OSCCs under the microscope: loss of morphology, and the majority were detached from the plates
[2]
  morphology/attachment of OSCSCs under the microscope: the majority of these cells were still attached to the cell culture plate
[3]
  morphology/viability of PL-12 under the microscope: affected both PL-12 and MP2 morphologically
[4]; CDDP 50 μg/mL
  cell death in OSCCs compared with OSCSCs (PI staining): significant cell death in OSCCs when compared to OSCSCs; also recorded: more cell death in OSCCs when compared to OSCSCs
[5]; CDDP 50 μg/mL, 24 h
  inhibition of cell growth, OSCCs compared with OSCSCs: inhibit cell growth of OSCCs more than those seen with OSCSCs
[5]; 24 hours
  killing / decrease in cell numbers of OSCCs, in words: killed significantly; also recorded: greater decreases in cell numbers
[6]
  killing / decrease in cell numbers of OSCSCs, in words: not killed
[7]
  morphology/viability of MP2 under the microscope: affected both PL-12 and MP2 morphologically
[8]; CDDP 50 μg/mL
  cell death in PL-12 compared with MP2 (PI staining): higher in PL-12 in the representative experiment (FIG. 16B) and similar in compiled data
[9]
  percent decrease in cell numbers of PL12, in words: greater decrease in cell numbers

## CCCCCc1cc(O)c2c(c1)OC(C)(C)[C@@H]1CCC(C)=C[C@@H]21 [THC, Tetrahydrocannabinol]
Breast cancer cell lines
  effect on radiotherapy / anti-proliferative effects of radiation: failed to enhance anti-proliferative effects of radiation

## CS(=O)(=O)O.Cc1c(C(=O)c2cccc3ccccc23)c2cccc3c2n1[C@H](CN1CCOCC1)CO3 [WIN 55,212-2, (R)-(+)-[2,3-Dihydro-5-methyl-3-(4-morpholinylmethyl)pyrrolo[1,2,3-de]-1,4-benzoxazin-6-yl]-1-naphthalenylmethanone mesylate]
Breast cancer cell lines
  effect on radiotherapy / anti-proliferative effects of radiation: synergistically increased the effects of radiotherapy
[1]; [18]
  morphology/viability of OSCCs under the microscope: some of the OSCCs still remained viable but some rounded up and detached and were not viable
[1]; low concentrations of WIN 55,212-2, 24 h
  morphology/viability of OSCCs under the microscope: remained viable
tumor
  cytostatic effect (fold change of the tumor-cell coverage of the well-plate): arrests the tumor growth
[2]
  morphology/attachment of OSCSCs under the microscope: became detached from the culture plates
[3]
  morphology/viability of PL-12 under the microscope: maintained their morphology and remained viable
[4]; WIN 55,212-2 75 and 100 μM
  cell death in OSCCs (PI staining): up to 10%
[10]; WIN 55,212-2 25-100 μM, compiled data
  amounts of cell death in OSCSCs compared with those induced by CDDP: either similar or higher when compared to those induced by CDDP
[10]; all WIN 55,212-2 concentrations tested, 24 hours, mesylate
  cell death in OSCSCs compared with OSCCs (PI staining): higher cell death
[11]; [19]
  CD44 cell surface expression, OSCSCs: decreased expressions
  CD54 cell surface expression, OSCSCs: decreased expressions
  PD-L1 (B7H1) cell surface expression, OSCSCs: decreased expressions
[11]; [20]
  MHC class I expression on the cell surface, OSCSCs: decreases in MHC class I expression
[5]; 24 hours, mesylate
  killing / decrease in cell numbers of OSCCs, in words: much less; also recorded: smaller decrease in cell numbers
[5]; WIN 55,212-2 10-100 μM, 24 hours
  decrease in cell numbers of OSCC (viable cells): 10-25%
[6]; mesylate
  killing / decrease in cell numbers of OSCSCs, in words: significantly killed; also recorded: significantly greater than OSCCs
[12]
  CD44 cell surface expression, PL-12: decreased expressions; also recorded: Decreased cell surface expression
  CD54 cell surface expression, PL-12: decreased expressions; also recorded: decreased the expression
[7]
  morphology/viability of MP2 under the microscope: largely lost their shape and morphology, and had detached from the plates
[13]; [21]
  CD44 cell surface expression, OSCCs: Decreased expression
  CD54 cell surface expression, OSCCs: Decreased expression
  MHC class I cell surface expression, OSCCs: Decreased expression
  PD-L1 (B7H1) cell surface expression, OSCCs: Decreased expression
[13]; [20]
  MHC class I expression on the cell surface, OSCCs: decreases in MHC class I expression
[14]; [22]
  percentages of dead cells, MP2 (PI staining): approximately 30%
[14]; various concentrations of WIN 55,212-2, 48 hours
  increase in cell death in MP2s compared with PL12 (PI staining): greater higher increase in cell death
[8]; [22]
  percentages of dead cells, PL-12 (PI staining): up to 20%
[15]; [23]
  decreased numbers of viable cells, MP2: 60-85%
[15]; various concentrations of WIN 55,212-2
  percent decrease in cell numbers of MP2s, in words: significantly greater than PL12s
[9]; [23]
  decreased numbers of viable cells, PL-12: 50-70%
[9]
  percent decrease in cell numbers of PL12, in words: smaller decreases in cell numbers
[16]; WIN 55,212-2, 48 h, mesylate
  CD44 cell surface expression, MP2: decreased expressions; also recorded: Decreased cell surface expression
  CD54 cell surface expression, MP2: decreased expressions; also recorded: decreased the expression
  MHC class I cell surface expression, MP2: decreased expressions; also recorded: decreased on MP2
  PD-L1 (B7H1) cell surface expression, MP2: decreased expressions; also recorded: decreased in MP2
[16]; WIN 55,212-2 treatments (FIG. 17F)
  extent of decrease in all surface receptor expressions, MP2 compared with PL-12: significantly greater than those seen in PL-12 tumor cells
[17]
  tumor burden, lung metastasis and tumor induced angiogenesis in vivo: reduce tumor burden, lung metastasis and tumor induced angiogenesis

## CCCCCCC(C)(C)c1cc(O)c2c(c1)OC(C)(C)C1CCC(=O)CC21 (centres unmarked) [nabilone]
Breast cancer cell lines
  effect on radiotherapy / anti-proliferative effects of radiation: failed to enhance anti-proliferative effects of radiation
